In brackets after ≈: the same amount, converted by molar mass. Several values for one entry are separate records, joined by “and”; a condition that tells them apart may be missing. Equal entries are not always repeated. One block for each molecule: values may come before it.
Assays:
Test in all cases: ≥ marks a high value that may be exact or a test limit, other limits are often not marked, values filed in µg/mL are converted to µM
[1] = test system: Bacillus anthracis Sterne 34F2
[2] = test system: Bacillus subtilis ATCC 9372
[3] = test system: Burkholderia thailandensis
Acinetobacter baumannii = test system: Acinetobacter baumannii
[4] = test system: Enterobacter cloacae 2524
[5] = test system: Enterobacter cloacae 6780
Escherichia coli 170 = test system: Escherichia coli 170
Escherichia coli 4530 = test system: Escherichia coli 4530
[6] = test system: Escherichia coli ATCC 25922
[7] = test system: Klebsiella pneumoniae 1625
[8] = test system: Klebsiella pneumoniae 913
[9] = test system: Pseudomonas aeruginosa 4677
[10] = test system: Pseudomonas aeruginosa 5106
Escherichia coli BW25113 = test system: Escherichia coli BW25113
Escherichia coli F2513 = test system: Escherichia coli F2513
Escherichia coli F470 = test system: Escherichia coli F470
Escherichia coli JW3596 = test system: Escherichia coli JW3596
Escherichia coli JW3605 = test system: Escherichia coli JW3605
[11] = test system: Micrococcus luteus ATCC 9341
Aeromonas sobria = test system: Aeromonas sobria
Arcyria cinerea = test system: Arcyria cinerea
[12] = test system: Candida albicans ATCC 2002
Candida glabrata 0902 = test system: Candida glabrata 0902
Cryptococcus neoformans = test system: Cryptococcus neoformans
[13] = test system: Cutibacterium acnes ATCC 11827
[14] = test system: Enterococcus faecalis 981
[15] = test system: Enterococcus faecium 1299
Escherichia coli 1334 = test system: Escherichia coli 1334
Escherichia coli 1335 = test system: Escherichia coli 1335
Escherichia coli 1342 = test system: Escherichia coli 1342
Escherichia coli 1375 = test system: Escherichia coli 1375
Escherichia coli = test system: Escherichia coli
[16] = test system: Klebsiella pneumoniae 1400
Klebsiella pneumoniae = test system: Klebsiella pneumoniae
Proteus mirabilis = test system: Proteus mirabilis
Proteus vulgaris = test system: Proteus vulgaris
[17] = test system: Pseudomonas aeruginosa 1411
[18] = test system: Pseudomonas aeruginosa 1412
[19] = test system: Pseudomonas aeruginosa 1413
[20] = test system: Pseudomonas aeruginosa ATCC 27853
[21] = test system: Salmonella enterica subsp. enterica serovar Typhi
Serratia marcescens = test system: Serratia marcescens
[22] = test system: Staphylococcus aureus 1303
[23] = test system: Staphylococcus aureus 1307
[24] = test system: Staphylococcus aureus 1350
[25] = test system: Staphylococcus aureus ATCC 2592
Staphylococcus aureus = test system: Staphylococcus aureus
[26] = test system: Staphylococcus epidermidis
[27] = test system: Staphylococcus haemolyticus
[28] = test system: Stenotrophomonas maltophilia

SMILES: CC[C@H](C)[C@@H]1NC(=O)CNC(=O)[C@H](CO)NC(=O)[C@H](CC(C)C)NC(=O)[C@H](CC(C)C)NC(=O)[C@H](CC(=O)O)NC(=O)[C@@H](NC(=O)[C@@H](NC(=O)[C@H](C)N)[C@@H](C)O)CSSC[C@@H]2NC(=O)[C@H](Cc3ccc(O)cc3)NC(=O)CNC(=O)CNC(=O)[C@H](CCCN=C(N)N)NC(=O)[C@H](CC(N)=O)NC(=O)CNC(=O)[C@H](CCCN=C(N)N)NC(=O)[C@H](Cc3ccccc3)NC(=O)[C@H](C(C)C)NC(=O)[C@@H]3CSSC[C@@H](C(=O)N[C@@H](CCCN=C(N)N)C(=O)N[C@@H](CC(N)=O)C(=O)O)NC(=O)[C@H](C(C)C)NC(=O)[C@H](CSSC[C@H](NC(=O)[C@H](C)NC(=O)[C@H](CO)NC(=O)[C@H](Cc4cnc[nH]4)NC(=O)[C@H](CCC(N)=O)NC(=O)[C@H](C(C)C)NC(=O)CNC1=O)C(=O)N[C@@H](C)C(=O)N[C@@H](CC(C)C)C(=O)N[C@@H](Cc1cnc[nH]1)C(=O)N3)NC(=O)[C@H]([C@@H](C)CC)NC(=O)CNC(=O)[C@H](CCCCN)NC(=O)CNC(=O)[C@H]([C@@H](C)O)NC2=O [ATCDLLSGIGVQHSACALHCVFRGNRGGYCTGKGICVCRN]
MIC [1]: ≥ 79 µM | MIC [2]: 7.9 µM (≈ 32.7 µg/mL) | MIC [3]: ≥ 50 µM

MIC (Acinetobacter baumannii): 8.84 µM (≈ 22.1 µg/mL) | MIC [4]: ≥ 50 µM | MIC [5]: 25 µM (≈ 62.4 µg/mL) | MIC (Escherichia coli 170): 3.12 µM (≈ 7.79 µg/mL) | MIC (Escherichia coli 4530): 25 µM (≈ 62.4 µg/mL) | MIC [6]: 12.5 µM (≈ 31.2 µg/mL) | MIC [7]: 3.12 µM (≈ 7.79 µg/mL) | MIC [8]: ≥ 50 µM | MIC [9]: 12.5 µM (≈ 31.2 µg/mL) | MIC [10]: ≥ 50 µM
SMILES: CC[C@H](C)[C@H](N)C(=O)N[C@@H](CCCCN)C(=O)N[C@@H](CO)C(=O)N[C@H](C(=O)N[C@@H](C)C(=O)N[C@@H](CO)C(=O)N[C@@H](CCCCN)C(=O)N[C@H](C(=O)N[C@@H](C)C(=O)N[C@@H](CC(N)=O)C(=O)N[C@H](C(=O)N[C@H](C(=O)N[C@@H](CCC(N)=O)C(=O)N[C@@H](CCCCN)C(=O)N[C@@H](CC(C)C)C(=O)N[C@@H](CCCCN)C(=O)N[C@@H](CCCN=C(N)N)C(=O)N[C@@H](CCCCN)C(=O)N[C@@H](C)C(=O)N[C@@H](CCCCN)C(=O)N[C@@H](CC(N)=O)C(=O)N[C@@H](C)C(=O)N[C@H](C(=O)O)C(C)C)C(C)C)[C@@H](C)O)C(C)C)[C@@H](C)CC [IKSIASKVANTVQKLKRKAKNAV]

MIC [6]: 18.3 µM (≈ 32 µg/mL) | MIC (Escherichia coli BW25113): 18.3 µM (≈ 32 µg/mL) | MIC (Escherichia coli F2513): 6.46 µM (≈ 11.3 µg/mL) | MIC (Escherichia coli F470): 18.3 µM (≈ 32 µg/mL) | MIC (Escherichia coli JW3596): 2.28 µM (≈ 4 µg/mL) | MIC (Escherichia coli JW3605): 18.3 µM (≈ 32 µg/mL) | MIC [11]: 0.8 µM (≈ 1.4 µg/mL)
SMILES: CC[C@H](C)[C@H](N)C(=O)N[C@@H](CC(C)C)C(=O)N1CCC[C@H]1C(=O)N[C@@H](Cc1c[nH]c2ccccc12)C(=O)N[C@@H](CCCCN)C(=O)N[C@@H](Cc1c[nH]c2ccccc12)C(=O)N1CCC[C@H]1C(=O)N[C@@H](Cc1c[nH]c2ccccc12)C(=O)N[C@@H](Cc1c[nH]c2ccccc12)C(=O)N1CCC[C@H]1C(=O)N[C@@H](Cc1c[nH]c2ccccc12)C(=O)N[C@@H](CCCN=C(N)N)C(N)=O [ILPWKWPWWPWR]

MIC (Acinetobacter baumannii): 1.48 µM and 1.05 µM | MIC (Aeromonas sobria): 1.48 µM (≈ 4.7 µg/mL) | MIC (Arcyria cinerea): 0.37 µM and 0.74 µM | MIC [12]: 0.18 µM and 0.37 µM | MIC (Candida glabrata 0902): 5.9 µM (≈ 18.7 µg/mL) | MIC (Cryptococcus neoformans): 23.6 µM (≈ 75 µg/mL) | MIC [13]: 0.74 µM (≈ 2.35 µg/mL) | MIC [14]: 2.95 µM and 1.48 µM | MIC [15]: 1.48 µM (≈ 4.7 µg/mL) | MIC (Escherichia coli 1334): 2.95 µM (≈ 9.37 µg/mL) | MIC (Escherichia coli 1335): 1.48 µM (≈ 4.7 µg/mL) | MIC (Escherichia coli 1342): 0.74 µM and 1.48 µM | MIC (Escherichia coli 1375): 2.95 µM (≈ 9.37 µg/mL) | MIC [6]: 1.48 µM (≈ 4.7 µg/mL) | MIC (Escherichia coli): 1.48 µM (≈ 4.7 µg/mL) | MIC [16]: 4.17 µM (≈ 13.2 µg/mL) | MIC (Klebsiella pneumoniae): 2.95 µM and 5.9 µM | MIC (Proteus mirabilis): 1.48 µM (≈ 4.7 µg/mL) | MIC (Proteus vulgaris): 23.6 µM (≈ 75 µg/mL) | MIC [17]: 1.48 µM and 2.95 µM | MIC [18]: 2.95 µM and 5.9 µM | MIC [19]: 2.95 µM (≈ 9.37 µg/mL) | MIC [20]: 5.9 µM and > 2.95 µM | MIC [21]: 5.9 µM (≈ 18.7 µg/mL) | MIC (Serratia marcescens): 31.5 µM and 23.6 µM | MIC [22]: 2.95 µM and 1.48 µM | MIC [23]: 2.95 µM (≈ 9.37 µg/mL) | MIC [24]: 1.48 µM (≈ 4.7 µg/mL) | MIC [25]: 0.18 µM (≈ 0.572 µg/mL) | MIC (Staphylococcus aureus): 0.74 µM and > 0.37 µM | MIC [26]: 2.95 µM (≈ 9.37 µg/mL) | MIC [28]: 2.95 µM (≈ 9.37 µg/mL)
SMILES: CC[C@H](C)[C@H](NC(=O)[C@H](C)NC(=O)[C@H](CCCN=C(N)N)NC(=O)[C@H](Cc1ccc(O)cc1)NC(=O)[C@H](CC(C)C)NC(=O)[C@H](CC(N)=O)NC(=O)[C@H](Cc1ccc(O)cc1)NC(=O)CNC(=O)[C@H](C)NC(=O)[C@@H](NC(=O)[C@@H](NC(=O)[C@@H](NC(=O)[C@H](CCCN=C(N)N)NC(=O)[C@@H](NC(=O)[C@@H](NC(=O)[C@@H](NC(=O)[C@@H]1CCCN1C(=O)[C@H](Cc1c[nH]c2ccccc12)NC(=O)[C@H](Cc1ccccc1)NC(=O)[C@H](CCCN=C(N)N)NC(=O)[C@H](CCCCN)NC(=O)[C@@H](NC(=O)[C@@H](N)CCCN=C(N)N)[C@@H](C)CC)C(C)C)C(C)C)[C@@H](C)CC)[C@@H](C)O)C(C)C)C(C)C)C(=O)N[C@@H](CCCCN)C(=O)N[C@@H](CCCCN)C(=O)N[C@@H](CCCCN)C(=O)O [RIKRFWPVVIRTVVAGYNLYRAIKKK]
MIC [27]: 0.09 µM (≈ 0.286 µg/mL)

— DBAASP
